Measurements published in PubChem BioAssay (NCI).
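The compound was tested at five concentrations on cells cultured in 96-well plates, with a 48-hour exposure period. GI50 = concentration required for 50% inhibition of growth. TGI denotes the concentration required for complete inhibition of growth.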

Assays:
Test in all cases: DTP human tumour cell line panel, 48 h
[1] = tested on: 786-0 renal
[2] = tested on: A498 renal
[3] = tested on: A549 NSCLC
[4] = tested on: ACHN renal
[5] = tested on: BT-549 breast
[6] = tested on: CAKI-1 renal
[7] = tested on: CCRF-CEM leukemia
[8] = tested on: COLO 205 colon
[9] = tested on: DU-145 prostate
[10] = tested on: EKVX NSCLC
[11] = tested on: HCC-2998 colon
[12] = tested on: HCT-116 colon
[13] = tested on: HCT-15 colon
[14] = tested on: HL-60(TB) leukemia
[15] = tested on: HOP-62 NSCLC
[16] = tested on: HOP-92 NSCLC
[17] = tested on: HS 578T breast
[18] = tested on: HT29 colon
[19] = tested on: IGROV1 ovarian
[20] = tested on: K-562 leukemia
[21] = tested on: KM12 colon
[22] = tested on: LOX IMVI melanoma
[23] = tested on: M14 melanoma
[24] = tested on: MALME-3M melanoma
[25] = tested on: MCF7 breast
[26] = tested on: MDA-MB-231 breast
[27] = tested on: MDA-MB-435
[28] = tested on: MOLT-4 leukemia
[29] = tested on: NCI-H226 lung
[30] = tested on: NCI-H23 lung
[31] = tested on: NCI-H460 lung
[32] = tested on: NCI-H522 lung
[33] = tested on: NCI/ADR-RES ovarian
[34] = tested on: OVCAR-3 ovarian
[35] = tested on: OVCAR-4 ovarian
[36] = tested on: OVCAR-5 ovarian
[37] = tested on: OVCAR-8 ovarian
[38] = tested on: PC-3 prostate
[39] = tested on: RPMI-8226 leukemia
[40] = tested on: RXF 393 renal
[41] = tested on: SF-268 CNS
[42] = tested on: SF-295 CNS
[43] = tested on: SF-539 CNS
[44] = tested on: SK-MEL-2 melanoma
[45] = tested on: SK-MEL-28 melanoma
[46] = tested on: SK-MEL-5 melanoma
[47] = tested on: SK-OV-3 ovarian
[48] = tested on: SN12C renal
[49] = tested on: SNB-19 CNS
[50] = tested on: SNB-75 CNS
[51] = tested on: SR leukemia
[52] = tested on: SW-620 colon
[53] = tested on: T-47D breast
[54] = tested on: TK-10 renal
[55] = tested on: U251 CNS
[56] = tested on: UACC-257 melanoma
[57] = tested on: UACC-62 melanoma
[58] = tested on: UO-31 renal

C=CC(COC(c1ccccc1)(c1ccccc1)c1ccccc1)N(CC)CC (stereo unspecified)
GI50 [1]: 11.4 µM | TGI [1]: 27.7 µM | GI50 [2]: 8.25 µM | TGI [2]: 23.5 µM | GI50 [3]: 5.16 µM | TGI [3]: 18.4 µM | GI50 [4]: 8.1 µM | TGI [4]: 23.9 µM | GI50 [5]: 14.7 µM | TGI [5]: 30.3 µM | GI50 [6]: 2.43 µM | TGI [6]: 11.8 µM | GI50 [7]: 3.76 µM | TGI [7]: 14.8 µM | GI50 [8]: 1.7 µM | TGI [8]: 3.4 µM | GI50 [9]: 6.54 µM | TGI [9]: 20.2 µM | GI50 [10]: 4.48 µM | TGI [10]: 19.2 µM | GI50 [11]: 4.28 µM | TGI [11]: 16.4 µM | GI50 [12]: 3.43 µM | TGI [12]: 14.3 µM | GI50 [13]: 2.6 µM | TGI [13]: 13.9 µM | GI50 [14]: 3.68 µM | TGI [14]: 16.2 µM | GI50 [15]: 3.93 µM | TGI [15]: 15.6 µM | GI50 [16]: 4.5 µM | TGI [16]: 18 µM | GI50 [17]: 2.21 µM | TGI [17]: 9.86 µM | GI50 [18]: 1.93 µM | TGI [18]: 7.05 µM | GI50 [19]: 5.09 µM | TGI [19]: 20.1 µM | GI50 [20]: 2.07 µM | TGI [20]: 5.86 µM | GI50 [21]: 4.33 µM | TGI [21]: 14.8 µM | GI50 [22]: 4.73 µM | TGI [22]: 18.8 µM | GI50 [23]: 2.53 µM | TGI [23]: 6.19 µM | GI50 [24]: 1.89 µM | TGI [24]: 4.3 µM | GI50 [25]: 2.8 µM | TGI [25]: 7.21 µM | GI50 [26]: 3.35 µM | TGI [26]: 13.5 µM | GI50 [27]: 4.04 µM | TGI [27]: 16.3 µM | GI50 [28]: 3.02 µM | TGI [28]: 11.6 µM | GI50 [29]: 11.9 µM | TGI [29]: 30.9 µM | GI50 [30]: 6.07 µM | TGI [30]: 19.9 µM | GI50 [31]: 2.5 µM | TGI [31]: 6.58 µM | GI50 [32]: 4.18 µM | TGI [32]: 15.2 µM | GI50 [33]: 3.88 µM | TGI [33]: 18.2 µM | GI50 [34]: 7.04 µM | TGI [34]: 20.3 µM | GI50 [35]: 4.74 µM | TGI [35]: 17.5 µM | GI50 [36]: 6.66 µM | TGI [36]: 22.1 µM | GI50 [37]: 5.87 µM | TGI [37]: 20.1 µM | GI50 [38]: 4.02 µM | TGI [38]: 15.6 µM | GI50 [39]: 2.99 µM | TGI [39]: 7.8 µM | GI50 [40]: 2.92 µM | TGI [40]: 8.21 µM | GI50 [41]: 11 µM | TGI [41]: 24.9 µM | GI50 [42]: 1.74 µM | TGI [42]: 3.78 µM | GI50 [43]: 4.88 µM | TGI [43]: 18.6 µM | GI50 [44]: 4.68 µM | TGI [44]: 13.9 µM | GI50 [45]: 3.59 µM | TGI [45]: 11.8 µM | GI50 [46]: 1.95 µM | TGI [46]: 3.98 µM | GI50 [47]: 8.12 µM | TGI [47]: 21.4 µM | GI50 [48]: 7.97 µM | TGI [48]: 24.5 µM | GI50 [49]: 10.1 µM | TGI [49]: 25.3 µM | GI50 [50]: 10.3 µM | TGI [50]: 22.5 µM | GI50 [51]: 2.13 µM | TGI [51]: 5.29 µM | GI50 [52]: 2.32 µM | TGI [52]: 7.95 µM | GI50 [53]: 4.6 µM | TGI [53]: 19.8 µM | GI50 [54]: 3.19 µM | TGI [54]: 10.8 µM | GI50 [55]: 2.98 µM | TGI [55]: 12 µM | GI50 [56]: 2.27 µM | TGI [56]: 6.32 µM | GI50 [57]: 3.61 µM | TGI [57]: 12.5 µM | GI50 [58]: 3.54 µM | TGI [58]: 16.4 µM
